Experimental data from paper PMC11767451, “Novel Approaches to Monitor Pharmacokinetics and Metabolism of Gemcitabine-Ibandronate Conjugate in Mice and Dogs” (Molecules, 2025).
Where two headings read alike, the source gives them in different places.

Legend:
[1] = cited from earlier work
[2] = design: method as in PMID 33744463; conditions: (enriched) mouse plasma; cited from earlier work
[3] = design: method as in PMID 36571444, PMID 24131140, PMID 21561347; conditions: cancer patients; cited from earlier work
[4] = Stability in mouse plasma (accelerated, freeze-thaw, frozen PK samples); type: in vitro ADME; conditions: mouse plasma PK samples re-extracted after 2.5 years at <−70 °C
[5] = Stability in dog plasma (accelerated, freeze-thaw, frozen PK samples); type: in vitro ADME; conditions: dog plasma PK samples re-extracted after 2.5 years at <−70 °C

| SMILES | duration stable in human plasma ([1]; −70 °C) | duration stable in mouse plasma [2] | fatal treatment-related events, share of patients [3] | %-ACC, frozen PK sample stability [4] [%] | %-ACC, frozen PK sample stability [5] [%] | duration stable in human plasma ([1]; −20 °C) |
| --- | --- | --- | --- | --- | --- | --- |
| Nc1ccn([C@@H]2O[C@H](CO)[C@@H](O)C2(F)F)c(=O)n1 [GEM, gemcitabine] | up to 30 days | up to 42 days | <1% to 4 |  |  |  |
| O=c1ccn([C@@H]2O[C@H](CO)[C@@H](O)C2(F)F)c(=O)[nH]1 [dFdU, 2′,2′-difluoro-2′-deoxyuridine] |  | up to 42 days |  | 71.5 | 63.4 |  |
| O=c1ccn([C@@H]2O[C@H](COP(=O)(O)O)[C@@H](O)C2(F)F)c(=O)[nH]1 [dFdUMP, 2′,2′-difluoro-2′-deoxyuridine-5′-phosphate] |  |  |  | 108.1 | 49.3 |  |
| CCCCCN(C)CCC(O)(P(=O)(O)O)P(=O)(O)O [IB, ibandronate] |  |  |  |  |  | up to 4 months |
| Nc1ccn([C@@H]2O[C@H](COP(=O)(O)O)[C@@H](O)C2(F)F)c(=O)n1 [GEMMP, gemcitabine-5′-phosphate] |  |  |  | 64.0 | 58.1 |  |
